In US9550811B2, “Peptide scaffold design” (BIONOR IMMUNO AS, priority 2010, dated 2017):

How the values were obtained:
human PBMCs [1] = assay type: cell-based
human PBMCs [2] = test: Extracellular staining for biotinylated peptides (flow cytometry); assay type: cell-based
Method: 96-well U-bottom polystyrene plates (NUNC, cat no: 163320) were used for staining of human PBMCs. Briefly, 8 ul of N- or C-terminally biotinylated peptides according to table 1 or table 2 (i.e. 5 mM, 2.5 mM & 1.25 mM tested for each peptide; all peptides manufactured by Schafer) were incubated at 37° C. for 2 h with 40 ul of PBMC (12.5×10^6 cells/ml) from blood donors. Cells were then washed 3× with 150 ul of Cellwash (BD, cat no: 349524), then stained with Streptavidin-APC (BD, cat no: 554067) & Anti-hCD11c (eBioscience, cat no: 12-0116) according to manufacturer at 4° C. for 30 min aiming to visualize biotinylated peptides & dendritic cells, respectively. Cells were then washed 3× with 150 ul of Cellwash (BD, cat no: 349524), followed by resuspension in staining buffer (BD, cat no: 554656) before flow cytometry. Dendritic cells were gated as CD11c+ events outside lymphocyte region (i.e. higher FSC & SSC signals than lymphocytes). 200 000 total cells were acquired on a FACSCanto II flow cytometer with HTS loader, and histograms for both total cells & dendritic cells with respect to peptide-fluorescence (i.e. GeoMean) were prepared.

HLA-A1 = test: REVEAL binding assay; conditions: score as percentage of the signal generated by the positive control peptide
HLA-A24 = test: REVEAL binding assay; conditions: score as percentage of the signal generated by the positive control peptide
HLA-A29 = test: REVEAL binding assay; conditions: score as percentage of the signal generated by the positive control peptide
HLA-B8 = test: REVEAL binding assay; conditions: score as percentage of the signal generated by the positive control peptide
HLA-B14 = test: REVEAL binding assay; conditions: score as percentage of the signal generated by the positive control peptide
Description: (§2) HLA-A1, HLA-A2, HLA-A3, HLA-A11, HLA-A24, HLA-A29, HLA-B7, HLA-B8, HLA-B14, HLA-B15, HLA-B27, HLA-B35, HLA-B40.
(§3) The REVEAL™ binding assay determined the ability of each candidate peptide to bind to one or more MHC class I alleles and stabilizing the MHC-peptide complex. […] Detection is based on the presence or absence of the native conformation of the MHC-peptide complex. Each peptide is given a score relative to the positive control peptide, which is a known T cell epitope.

HLA-B15 = test: REVEAL binding assay; conditions: score as percentage of the signal generated by the positive control peptide
HLA-A11 = HLA-A11 (Homo sapiens, UniProt P04439, A114D/F33Y/S129P); test: REVEAL binding assay; conditions: score as percentage of the signal generated by the positive control peptide
Method in brief: (§1)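 Synthetic nonamer peptides were tested for their ability to bind and stabilize MHC class I–peptide complexes, detected by the native conformation of the complex. Each peptide is scored relative to a positive-control known T-cell epitope.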

HLA-A2 = HLA-A2 (Homo sapiens, UniProt P04439, D140Y/D185E/D98H/E176V/E277Q/G131W/G231S/I119V/I121R/I166T/I218V/N151K/N90K/P208A/P217A/Q86G/Q94H/R138H/R169H); test: REVEAL binding assay; conditions: score as percentage of the signal generated by the positive control peptide
Method in brief: as §1

HLA-A3 = HLA-A3 (Homo sapiens, UniProt P04439); test: REVEAL binding assay; conditions: score as percentage of the signal generated by the positive control peptide
Method in brief: as §1

HLA-B27 = HLA-B27 (Homo sapiens, UniProt P01889, D138H/D201E/E176V/E204Q/G107R/H137Y/K202T/N104T/N87E/Q56L/Q94K/R106L/R155S/R180L/S101D/S121N/S48T/Y140D/Y33H/Y91C); test: REVEAL binding assay; conditions: score as percentage of the signal generated by the positive control peptide
Method in brief: as §1

HLA-B7 = HLA-B7 (Homo sapiens, UniProt P01889); test: REVEAL binding assay; conditions: score as percentage of the signal generated by the positive control peptide
Method in brief: as §1

HLA-B35 = test: REVEAL binding assay; conditions: score as percentage of the signal generated by the positive control peptide
Description: as §2, §3

HLA-B40 = test: REVEAL binding assay; conditions: score as percentage of the signal generated by the positive control peptide
Method in brief: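 Nonamer peptides were tested for their ability to bind MHC class I and stabilize the native-conformation MHC–peptide complex. Each score is the signal as a percentage of a known T cell epitope positive control, with a pass/fail call; an intermediate-affinity control peptide confirms assay performance.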

Sequence of HLA-B7 (P61769 21-119): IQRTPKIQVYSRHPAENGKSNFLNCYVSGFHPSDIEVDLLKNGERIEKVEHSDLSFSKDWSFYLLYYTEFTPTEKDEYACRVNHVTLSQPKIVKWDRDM
Sequence of HLA-B7 (P01889 25-299): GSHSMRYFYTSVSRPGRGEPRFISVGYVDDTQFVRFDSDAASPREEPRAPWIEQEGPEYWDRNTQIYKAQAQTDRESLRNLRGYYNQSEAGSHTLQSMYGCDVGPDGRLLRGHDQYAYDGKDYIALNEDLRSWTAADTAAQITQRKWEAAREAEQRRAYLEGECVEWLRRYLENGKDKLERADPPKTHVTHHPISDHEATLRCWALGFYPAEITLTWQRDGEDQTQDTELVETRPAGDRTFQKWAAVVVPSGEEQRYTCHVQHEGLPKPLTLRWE
Sequence of HLA-A3 (P04439 25-299): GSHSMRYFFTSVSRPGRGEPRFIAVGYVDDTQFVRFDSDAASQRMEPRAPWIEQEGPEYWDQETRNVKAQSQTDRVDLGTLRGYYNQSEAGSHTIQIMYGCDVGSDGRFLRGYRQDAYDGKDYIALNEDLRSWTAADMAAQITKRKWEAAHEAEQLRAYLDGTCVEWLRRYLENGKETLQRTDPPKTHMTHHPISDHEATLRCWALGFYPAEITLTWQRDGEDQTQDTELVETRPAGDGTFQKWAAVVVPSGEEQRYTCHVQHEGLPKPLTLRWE
Sequence of HLA-A3 (P61769 21-119, further chain): as the sequence (P61769 21-119) above

Row | Sequence | Intracellular staining, median (human PBMCs [1]) | Extracellular staining, median (human PBMCs [2]) | REVEAL binding score, HLA-type A1 (HLA-A1) [%] | REVEAL binding score, HLA-type A24 (HLA-A24) [%] | REVEAL binding score, HLA-type A29 (HLA-A29) [%] | REVEAL binding score, HLA-type B8 (HLA-B8) [%] | REVEAL binding score, HLA-type B14 (HLA-B14) [%] | REVEAL binding score, HLA-type B15 (HLA-B15) [%] | REVEAL binding score, HLA-type A11 (HLA-A11) [%] | REVEAL binding score, HLA-type A2 (HLA-A2) [%] | REVEAL binding score, HLA-type A3 (HLA-A3) [%] | REVEAL binding score, HLA-type B27 (HLA-B27) [%] | REVEAL binding score, HLA-type B7 (HLA-B7) [%] | REVEAL binding score, HLA-type B35 (HLA-B35) [%] | REVEAL binding score, HLA-type B40 (HLA-B40) [%]
1 | RGYIPLVGAPLGRRRVARALAHGVRVR [compound 6] | 5.35 | 2.20 |  |  |  |  |  |  |  |  |  |  |  |  | 
2 | RRGYIPLVGAPLGRRVARALAHGVRV [compound 8] | 6.92 | 3.06 |  |  |  |  |  |  |  |  |  |  |  |  | 
3 | RRGPVVHLTLRRRGQAGDDFS [compound 2, Neg control in scaffold, reference compound] | 4.12 | 1.77 |  |  |  |  |  |  |  |  |  |  |  |  | 
4 | RRIRNLGRVIETLTLZGYIPLIGARRIRNLGRVIETLTLZGYIPLIGAR [compound 20] | 13.25 | 126.5 |  |  |  |  |  |  |  |  |  |  |  |  | 
5 | RGYLPAVGAPIGRRRVIRVIAHGLRLR [compound 7] | 11.59 | 29.42 |  |  |  |  |  |  |  |  |  |  |  |  | 
6 | RRGYIPLVGAPLGRRRVARALAHGVRV [compound 9] | 3.25 | 2.06 |  |  |  |  |  |  |  |  |  |  |  |  | 
7 | EEGYIPLVGAPLGEEVARALAHGVRV [compound 10, HCV (Not scaffold)] | 1.16 | 1.95 |  |  |  |  |  |  |  |  |  |  |  |  | 
8 | RRSRNLGKVIDTLTCRRLMGYIPLVGA [compound 13] | 21.43 | 16.80 |  |  |  |  |  |  |  |  |  |  |  |  | 
9 | GGGYIPLVGAPLGGGVARALAHGVRV [compound 11, HCV (Not scaffold)] | 2.01 | 2.62 |  |  |  |  |  |  |  |  |  |  |  |  | 
10 | GYIPLVGAPLGGVARALAHGVRV [compound 5] | 1.84 | 2.08 |  |  |  |  |  |  |  |  |  |  |  |  | 
11 | QIVGGVYLL |  |  | 20.25 | 1.01 | 13.36 | 13.15 | 0.37 | 15.07 | 1.96 | 57.04 | 2.36 | 0.60 | 28.66 | 4.01 | 24.51
12 | GNIPGSTYS |  |  | 7.54 | 0.00 | 24.38 | 6.32 | 0.34 | 4.80 | 1.54 | 5.07 | 5.04 | 1.58 | 0.94 | 7.86 | 55.59
13 | RRGGGQIVGGVYLLPRRGPRLGVRATR [compound 14] | 4.81 | 17.00 |  |  |  |  |  |  |  |  |  |  |  |  | 
14 | TGNLPGCSF |  |  | 11.97 | 4.81 | 18.89 | 8.62 | 0.86 | 45.07 | 2.56 | 5.18 | 3.71 | 2.37 | 2.38 | 11.40 | 73.71
15 | VIDTLTCGF |  |  | 25.85 | 0.95 | 13.90 | 10.00 | 0.11 | 9.49 | 6.00 | 5.14 | 2.93 | 1.11 | 0.45 | 3.26 | 27.24
16 | IIGGNYLIP |  |  | 21.14 | 10.95 | 13.88 | 12.18 | 1.17 | 19.93 | 2.81 | 8.27 | 3.88 | 0.97 | 15.47 | 5.35 | 65.43
17 | LMGYIPLVG |  |  | 14.17 | 0.51 | 24.26 | 20.75 | 0.08 | 9.43 | 2.13 | 31.94 | 2.53 | 1.44 | 0.41 | 0.81 | 33.55
18 | MGYIPLVGA |  |  | 11.34 | 0.35 | 19.54 | 14.88 | 0.73 | 8.85 | 4.79 | 10.71 | 3.40 | 0.83 | 0.80 | 0.85 | 40.78
